Experimental data: BindingDB's records for doi:10.7270/Q2W37TR5 (Nmmlsc, 2009)
pEC50: −log10 of the molar value.

Molecular target: Ras-related C3 botulinum toxin substrate 1 (Mus musculus, UniProt P63001)
Test: wildtype Rac1 GTP binding inhibitors, SAR follow-up, biochemical, additional analogs, multiplex bead flow cytometry (AID 2040)
[1] = inactive by the depositor's call

## O=C1Nc2c(Cl)cccc2C1=C1Nc2ccccc2C1=O
  pEC50: 4.52

## O=C1Nc2c(Br)cccc2C1=C1Nc2ccccc2C1=O
  pEC50: 4.52

## O=C1Nc2c(F)cccc2C1=C1Nc2ccccc2C1=O
  pEC50: 4.46

## O=C1NC(=O)/C(=C2/C(=O)Nc3ccccc32)N1
  pEC50: 5.58

## O=C1Nc2cccc(Br)c2/C1=C1/Cc2ccccc2C1=O
[1]
  pEC50: 4.92

## O=C1Nc2ccc(Br)cc2C1=C1Nc2ccccc2C1=O
  pEC50: 4.79

## COc1ccc(S(=O)(=O)n2c(N)c(C#N)c(-c3ccccc3)c2C(=O)c2ccc(Br)cc2)cc1
[1]
  pEC50: 4.52

## O=[N+]([O-])c1ccc(C#Cc2ccccc2)cc1
[1]
  pEC50: 4.52

## O=C(C#Cc1ccccc1)c1ccc(OC(F)(F)F)cc1
[1]
  pEC50: 4.52

## COc1ccc(C(=O)C#Cc2ccccc2)cc1 [1-(4-methoxyphenyl)-3-phenyl-2-propyn-1-one]
[1]
  pEC50: 4.52

## O=C(C#Cc1ccccc1)c1ccc([N+](=O)[O-])cc1 [1-(4-nitrophenyl)-3-phenyl-2-propyn-1-one]
[1]
  pEC50: 4.52

## COc1ccc2cc(CC(=O)O)ccc2c1 [2-(6-methoxynaphthalen-2-yl)ethanoic acid]
[1]
  pEC50: 4.52

## CC(=O)Oc1ccccc1C(=O)O [2-(acetyloxy)benzoic acid]
[1]
  pEC50: 4.52

## O=C1Nc2ccccc2/C1=C1/Nc2ccccc2C1=O [2-[(3Z)-2-oxo-2,3-dihydro-1H-indol-3-ylidene]-2,3-dihydro-1H-indol-3-one]
  pEC50: 4.52

## CCCCS(=O)(=O)n1c(N)c(C#N)c(-c2cc(OC)c(OC)c(OC)c2)c1C(=O)c1ccccc1 [2-amino-5-benzoyl-1-butylsulfonyl-4-(3,4,5-trimethoxyphenyl)-3-pyrrolecarbonitrile]
[1]
  pEC50: 4.52

## COc1ccc(S(=O)(=O)n2c(N)c(C#N)c(-c3cncc(Br)c3)c2C(=O)c2ccccc2)cc1 [2-amino-5-benzoyl-4-(5-bromo-3-pyridinyl)-1-(4-methoxyphenyl)sulfonyl-3-pyrrolecarbonitrile]
[1]
  pEC50: 5.01

## COc1ccc(-c2c(C#N)c(N)n(S(C)(=O)=O)c2C(=O)c2ccccc2)cc1Br [2-azanyl-4-(3-bromanyl-4-methoxy-phenyl)-1-methylsulfonyl-5-(phenylcarbonyl)pyrrole-3-carbonitrile]
[1]
  pEC50: 4.52

## COc1cc(-c2c(C#N)c(N)n(S(=O)(=O)c3c(C(C)C)cc(C(C)C)cc3C(C)C)c2C(=O)c2ccccc2)cc(OC)c1OC [2-azanyl-5-(phenylcarbonyl)-4-(3,4,5-trimethoxyphenyl)-1-[2,4,6-tri(propan-2-yl)phenyl]sulfonyl-pyrrole-3-carbonitrile]
[1]
  pEC50: 4.12

## O=C1N=c2ccccc2=C1c1[nH]c2ccccc2c1NO [3-[3-(hydroxyamino)-1H-indol-2-yl]-2-indolone]
  pEC50: 4.52

## O=C(C#Cc1ccccc1)c1cccnc1 [3-phenyl-1-pyridin-3-ylprop-2-yn-1-one]
[1]
  pEC50: 4.52

## COC(=O)c1ccc(C(=O)C#Cc2ccccc2)cc1 [4-(1-oxo-3-phenylprop-2-ynyl)benzoic acid methyl ester]
[1]
  pEC50: 4.52

## N#Cc1ccc(C(=O)C#Cc2ccccc2)cc1 [4-(3-phenylprop-2-ynoyl)benzenecarbonitrile]
[1]
  pEC50: 4.52

## O=C1N=c2ccc(Br)cc2=C1c1[nH]c2ccccc2c1NO [5-bromanyl-3-[3-(oxidanylamino)-1H-indol-2-yl]indol-2-one]
  pEC50: 4.52

## O=C1N=c2c(Br)cccc2=C1c1[nH]c2ccccc2c1NO [7-bromanyl-3-[3-(oxidanylamino)-1H-indol-2-yl]indol-2-one]
  pEC50: 4.52

## O=C1N=c2c(Cl)cccc2=C1c1[nH]c2ccccc2c1NO [7-chloro-3-[3-(hydroxyamino)-1H-indol-2-yl]-2-indolone]
  pEC50: 4.52

## O=C1N=c2c(F)cccc2=C1c1[nH]c2ccccc2c1NO [7-fluoro-3-[3-(hydroxyamino)-1H-indol-2-yl]-2-indolone]
  pEC50: 4.52

## O=C1Nc2c(Br)cccc2/C1=C1/Cc2ccccc2C1=O [(3E)-7-bromo-3-(3-oxo-1H-inden-2-ylidene)-1H-indol-2-one]
[1]
  pEC50: 4.52

## O=C1NC(=S)N/C1=C1\C(=O)Nc2ccccc21 [(3Z)-3-(5-oxo-2-sulfanylideneimidazolidin-4-ylidene)-1H-indol-2-one]
  pEC50: 5.78

## O=C1Nc2ccccc2/C1=C1/Cc2ccccc2C1=O [UNM-0000305763]
[1]
  pEC50: 4.52

## N#Cc1c(-c2ccc(Cl)cc2)c(C(=O)c2ccccc2)n(S(=O)(=O)c2ccc([N+](=O)[O-])cc2)c1N [UNM-0000305780]
[1]
  pEC50: 4.52

## COc1ccc(S(=O)(=O)n2c(N)c(C#N)c(-c3cc(Br)c(OC)c(OC)c3)c2C(=O)c2ccccc2)cc1 [UNM-0000305782]
[1]
  pEC50: 4.52

## O=C(C#Cc1ccccc1)c1ccccc1[N+](=O)[O-] [UNM-0000306038]
[1]
  pEC50: 4.52

## O=C(C#Cc1ccccc1)c1ccccc1 [UNM-0000306039]
[1]
  pEC50: 4.52

## O=C(C#Cc1ccccc1)c1ccc(Cl)cc1 [UNM-0000306055]
[1]
  pEC50: 4.52

## O=C(C#Cc1ccccc1)c1ccc(F)cc1 [UNM-0000306059]
[1]
  pEC50: 4.52

## CC1=C(CC(=O)O)c2cc(F)ccc2/C1=C/c1ccc([S+](C)[O-])cc1 (stereo not drawn) [UNM-0000306136]
[1]
  pEC50: 4.52

## C[C@@H](C(=O)O)c1cccc(Oc2ccccc2)c1 [calcium;2-(3-phenoxyphenyl)propanoic acid;hydrate]
  pEC50: 4.52

## CSc1ccc(/C=C2/C(C)=C(CC(=O)O)c3cc(F)ccc32)cc1 [{6-Fluoro-2-methyl-3-[1-(4-methylsulfanyl-phenyl)-meth-(E)-ylidene]-3H-inden-1-yl}-acetic acid]
[1]
  pEC50: 4.26
